# Data reported in PubChem BioAssay AID248 (DTP/NCI, 2004).
# “And” between values parts separate entries of the source, which are not always exact repeats. Identical values can stand only once. Toxic doses and inconclusive results are not listed.
# Tested on: L1210 leukemia ip in BDF1 mice, survival T/C
# Assay: NCI In Vivo Anticancer Drug Screen. Data for tumor model L1210 Leukemia (intraperitoneal) in B6D2F1 (BDF1) mice
# Conditions: endpoint: mean survival time, higher = longer survival
# How it was run: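 Transplanted-tumor mice were given test agent; controls received vehicle only. Survival readings from the two groups were divided (treated over control).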
# [1] = dose: 100.0 mg/kg/injection, schedule: Q01DX001 (ip), vehicle: saline
# [2] = dose: 200.0 mg/kg/injection, schedule: Q01DX001 (ip), vehicle: saline
# [3] = dose: 100.0 mg/kg/injection, schedule: Q04DX003 (ip), vehicle: Klucel (hydroxypropylcellulose) (HPC)
# [4] = dose: 200.0 mg/kg/injection, schedule: Q04DX003 (ip), vehicle: Klucel (hydroxypropylcellulose) (HPC)
# [5] = dose: 100.0 mg/kg/injection, schedule: Q04DX003 (ip), vehicle: saline with Tween-80
# [6] = dose: 200.0 mg/kg/injection, schedule: Q04DX003 (ip), vehicle: saline with Tween-80
# [7] = dose: 400.0 mg/kg/injection, schedule: Q04DX003 (ip), vehicle: saline with Tween-80
smiles,measurement,setting,value
c1nc(Sc2ncnc3nc[nH]c23)c2[nH]cnc2n1,T/C,"dose: 50.0 mg/kg/injection, schedule: Q01DX001 (ip), vehicle: saline",108 % of control
same,T/C,"dose: 75.0 mg/kg/injection, schedule: Q01DX015 (ip), vehicle: saline",114 % of control
same,T/C,[1],104 % of control
same,T/C,"dose: 150.0 mg/kg/injection, schedule: Q01DX015 (ip), vehicle: other",213 % of control
same,T/C,[2],119 % of control
same,T/C,"dose: 238.0 mg/kg/injection, schedule: Q01DX001 (ip), vehicle: saline",115 % of control
same,T/C,"dose: 300.0 mg/kg/injection, schedule: Q01DX015 (ip), vehicle: other",176 % of control
same,T/C,"dose: 356.0 mg/kg/injection, schedule: Q01DX001 (ip), vehicle: saline",117 % of control
same,T/C,"dose: 600.0 mg/kg/injection, schedule: Q01DX015 (ip), vehicle: other",108 % of control
same,T/C,"dose: 600.0 mg/kg/injection, schedule: Q01DX015 (ip), vehicle: saline",117 % of control
CCOc1cc(N)nc(N)c1[N+](=O)[O-],T/C,"dose: 100.0 mg/kg/injection, schedule: Q01DX001 (ip), vehicle: carboxymethylcellulose (CMC)",95 % of control
same,T/C,"dose: 200.0 mg/kg/injection, schedule: Q01DX001 (ip), vehicle: carboxymethylcellulose (CMC)",87 % of control
CCN(CC)C(=S)c1ccc(C(=S)N(CC)CC)cc1,T/C,[3],91 % of control
same,T/C,[4],93 % of control
same,T/C,"dose: 400.0 mg/kg/injection, schedule: Q04DX003 (ip), vehicle: Klucel (hydroxypropylcellulose) (HPC)",93 % of control
C[N+](C)(C)CCOC(=O)c1cccc(CBr)c1CBr,T/C,"dose: 6.25 mg/kg/injection, schedule: Q01DX009 (ip), vehicle: saline",103 % of control
same,T/C,"dose: 6.25 mg/kg/injection, schedule: Q04DX003 (ip), vehicle: saline",104 % of control
same,T/C,"dose: 12.5 mg/kg/injection, schedule: Q01DX009 (ip), vehicle: saline",97 % of control
same,T/C,"dose: 12.5 mg/kg/injection, schedule: Q04DX003 (ip), vehicle: saline",98 % of control
same,T/C,"dose: 25.0 mg/kg/injection, schedule: Q01DX009 (ip), vehicle: saline",97 % of control
same,T/C,"dose: 25.0 mg/kg/injection, schedule: Q04DX003 (ip), vehicle: saline",104 % of control
CN(C)N=Nc1ccc(C(=O)N/N=C/c2cccc([N+](=O)[O-])c2)cc1,T/C,"dose: 50.0 mg/kg/injection, schedule: Q04DX003 (ip), vehicle: Klucel (hydroxypropylcellulose) (HPC)",92 % of control
same,T/C,[3],106 % of control
same,T/C,[4],92 % of control
CCOC(=O)CC1=NCCc2cc(OC)c(OC)cc21,T/C,"dose: 25.0 mg/kg/injection, schedule: Q04DX002 (ip), vehicle: Klucel (hydroxypropylcellulose) (HPC)",102 % of control
same,T/C,"dose: 50.0 mg/kg/injection, schedule: Q04DX002 (ip), vehicle: Klucel (hydroxypropylcellulose) (HPC)",99 % of control
same,T/C,"dose: 100.0 mg/kg/injection, schedule: Q04DX002 (ip), vehicle: Klucel (hydroxypropylcellulose) (HPC)",96 % of control
COc1ccc(/C=N\NC(=O)CCCC(=O)N/N=C/c2ccc(OC)cc2)cc1,T/C,"dose: 50.0 mg/kg/injection, schedule: Q01DX001 (ip), vehicle: other",93 % of control
same,T/C,"dose: 100.0 mg/kg/injection, schedule: Q01DX001 (ip), vehicle: other",88 % of control
same,T/C,"dose: 200.0 mg/kg/injection, schedule: Q01DX001 (ip), vehicle: other",90 % of control
O=S(=O)(O)CS(=O)(=O)O.[Ag],T/C,"dose: 5.0 mg/kg/injection, schedule: Q01DX001 (ip), vehicle: saline",101 % of control
same,T/C,"dose: 10.0 mg/kg/injection, schedule: Q01DX001 (ip), vehicle: saline",95 % of control
same,T/C,"dose: 20.0 mg/kg/injection, schedule: Q01DX001 (ip), vehicle: saline",97 % of control
same,T/C,"dose: 40.0 mg/kg/injection, schedule: Q01DX001 (ip), vehicle: saline",97 % of control
O=C1OC(=O)C2CC3OC3CC12 (stereo unspecified),T/C,"dose: 50.0 mg/kg/injection, schedule: Q01DX001 (ip), vehicle: saline sonified",106 % of control
same,T/C,"dose: 100.0 mg/kg/injection, schedule: Q01DX001 (ip), vehicle: saline sonified",96 % of control
same,T/C,[5],91 % of control
same,T/C,"dose: 200.0 mg/kg/injection, schedule: Q01DX001 (ip), vehicle: saline sonified",93 % of control
same,T/C,[6],94 % of control
same,T/C,[7],108 % of control
O=C(C1=CC=CC1=P(c1ccccc1)(c1ccccc1)c1ccccc1)C(Cl)(Cl)Cl,T/C,[5],96 % of control
same,T/C,[6],95 % of control
same,T/C,[7],96 % of control
N#Cc1sc2ccccc2c1CBr,T/C,"dose: 6.25 mg/kg/injection, schedule: Q01DX009 (ip), vehicle: Klucel (hydroxypropylcellulose) (HPC)",93 % of control
same,T/C,"dose: 12.5 mg/kg/injection, schedule: Q01DX009 (ip), vehicle: Klucel (hydroxypropylcellulose) (HPC)",94 % of control
same,T/C,"dose: 25.0 mg/kg/injection, schedule: Q01DX009 (ip), vehicle: Klucel (hydroxypropylcellulose) (HPC)",100 % of control
same,T/C,[3],100 % of control
same,T/C,[4],94 % of control
COc1ccc2c(=O)c3c(O)cc(OC)cc3oc2c1,T/C,[1],97 % of control
same,T/C,[2],101 % of control
same,T/C,"dose: 400.0 mg/kg/injection, schedule: Q01DX001 (ip), vehicle: saline",87 % of control and 90 % of control
